Key:
[1] = system: postmenopausal women; test: Polygraphic sleep recordings in randomized, double-blind, placebo-controlled study, prevention of sleep disturbances; type: in vivo, human
Method: Eight postmenopausal women, aged 48-74 yr (mean 57.4 yr), were selected after a careful clinical and biological evaluation. Investigations were performed 2-17 years (mean: 8.0 years) after natural menopause (seven subjects) or bilateral ovariectomy (one subject). Mean age at menopause was 49.4 years (range: 41-57 yr). Three subjects had never received hormone replacement therapy, and five subjects had been off such treatment for 2-6 months (mean: 4.4 months) at the time of enrollment. Body weight was in the normal range for all (mean+/-SEM of body mass index 22.1+/-0.8 kg/m2). In all subjects, estradiol plasma levels were <10 ng/liter. FSH plasma levels averaged 90 IU/liter (range: 66-136 IU/liter). The protocol was designed as a randomized, double-blind, placebo-controlled study. Thereafter, all subjects participated in random order in two studies (referred to as placebo and progesterone), separated from each other by at least 1 month. The placebo study preceded the progesterone study in four subjects and followed the progesterone study in the other four volunteers. Each study included an initial 20 day ambulatory period. During this period, the subjects were asked to maintain regular sleep-wake cycles (bedtime 2300-0700 h in darkness) and meal schedules (0800 h, 1230 h, 1900 h). They took daily, at 2300 h, a capsule of either 300 mg of progesterone or placebo. At the end of the ambulatory period, they were admitted at about 1600 h to the sleep laboratory for 44 hours. During hospitalization, subjects were maintained in a seated/upright position in normal indoor light conditions (+/-300 lux), and no naps were allowed during the scheduled wake periods (0700-2300 h). Meals were served at 0800 h, 1230 h, and 1900 h. At 2300 h, they received their usual capsule of either 300 mg of progesterone or placebo. During both scheduled sleep periods (2300-0700 h), subjects were kept recumbent in total darkness and sleep was polygraphically recorded. On the morning after the first night, a sterile heparin-lock catheter was inserted intravenously in the forearm and blood samples were collected for 24 hours at 15-minute intervals. The iv line was kept permeable by a slow drip of heparinized saline. During the sleep period, the indwelling catheter was connected to plastic tubing extending to an adjacent room and blood samples were collected remotely, as previously described (Leproult et al., 2005, Clin. Endocrinol. 63: 298-304). The total amount of blood withdrawn was less than 300 ml for each inpatient study. The subjects were discharged at about 1200 h after the second night. Polygraphic sleep recordings were visually scored at 30 second intervals, using standardized criteria ([…] and Kales, 1968, Los Angeles: UCLA Brain Information Service/Brain Research Institute) by the same experienced scorer who was blind to the clinical condition of the subject. Sleep onset and morning awakening were defined as, respectively, the times of the first and last 30 second intervals scored II, III, IV, or rapid eye movement (REM). The sleep period was defined as the time interval separating sleep onset and final awakening. Total sleep time was defined as the sleep period minus the total duration of wake after sleep onset (WASO). Sleep latency was defined as the time interval from lights off until sleep onset. Sleep efficiency was calculated as the total sleep time, expressed as percentage of the time allocated to sleep. Slow-wave sleep (SWS) was defined as stages III+IV. A spectral analysis was performed on the central electroencephalogram lead (PRANA, PhiTools, Strasbourg, France) (Latta et al., 2005, Sleep 28: 1525-1534). Muscular, ocular, and movement artifacts were eliminated before spectral analysis. Delta activity was calculated as the absolute spectral power in the frequency band 0.5-4 Hz. Mean delta power was calculated per 30-sec epoch. Delta power in non-REM sleep quantifies slow-wave activity (SWA) (i.e., the intensity of SWS). […]

[2] = system: postmenopausal women; test: Hormone levels (GH, IGF-I, TSH, free T4) from 24 hour blood sampling in the placebo-controlled study; type: in vivo, human
Method: Each study included an initial 20 day ambulatory period. During this period, the subjects were asked to maintain regular sleep-wake cycles (bedtime 2300-0700 h in darkness) and meal schedules (0800 h, 1230 h, 1900 h). They took daily, at 2300 h, a capsule of either 300 mg of progesterone or placebo.
At the end of the ambulatory period, they were admitted at about 1600 h to the sleep laboratory for 44 hours. During hospitalization, subjects were maintained in a seated/upright position in normal indoor light conditions (+/−300 lux), and no naps were allowed during the scheduled wake periods (0700-2300 h). Meals were served at 0800 h, 1230 h, and 1900 h. At 2300 h, they received their usual capsule of either 300 mg of progesterone or placebo. During both scheduled sleep periods (2300-0700 h), subjects were kept recumbent in total darkness and sleep was polygraphically recorded.
On the morning after the first night, a sterile heparin-lock catheter was inserted intravenously in the forearm and blood samples were collected for 24 hours at 15-minute intervals. The iv line was kept permeable by a slow drip of heparinized saline. During the sleep period, the indwelling catheter was connected to plastic tubing extending to an adjacent room and blood samples were collected remotely, as previously described (Leproult et al., 2005, Clin. Endocrinol. 63: 298-304). The total amount of blood withdrawn was less than 300 ml for each inpatient study. The subjects were discharged at about 1200 h after the second night.
Nonparametric tests (Friedman test, Wilcoxon signed rank test, Spearman rank test) were used for statistical calculations (StatView SE+ software for Macintosh computers, Abacus Concepts Inc., Berkeley, Calif.). Detection of outliers was performed by the Grubbs test (Grubbs, 1969, Technometrics 11:1-21; Grubbs and Beck, 1972, Technometrics 14:847-854). All group values are expressed as the mean+/−SEM.
Levels of growth hormone (GH) and thyroid-stimulating hormone (TSH) also were assessed.

[3] = system: men; conditions: men orally administered 300 mg progesterone; cited from earlier work
[4] = system: post-menopausal women; conditions: post-menopausal women administered 300 mg progesterone; cited from earlier work
[5] = night 2 (with catheter), P=0.04

SMILES: CC(=O)[C@H]1CC[C@H]2[C@@H]3CCC4=CC(=O)CC[C@]4(C)[C@H]3CC[C@]12C [progesterone, pregn-4-ene-3,20-dione]
- sleep duration and architecture, placebo versus progesterone treatment ([1]; night 1 (without catheter), 300 mg daily at 2300 h, after 20 day ambulatory period): no differences
- sleep latency, stage I, stage II, REM sleep, and REM latency, progesterone versus placebo ([1]; night 2 (with catheter)): no differences
- sleep efficiency higher under progesterone compared with placebo [1, 5]: 15%
- total SWA higher under progesterone compared with placebo [1, 5]: more than 40%
- total sleep time higher under progesterone compared with placebo [1, 5]: 20%
- mean WASO duration lower under progesterone compared with placebo ([1]; night 2 (with catheter), P=0.05): more than 50%
- SWS duration ([1]; night 2 (with catheter), all eight subjects, mean+/-SEM): 84 ± 10 min
- SWS duration, outlier excluded ([1]; night 2 (with catheter), outlier excluded from the analysis, mean+/-SEM, P=0.04 vs placebo): 79 ± 10 min
- other sleep variables, night 2 compared with night 1 ([1]; under progesterone 300 mg daily, night 2 with iv catheter): not significantly altered
- decrease in stage II, night 2 compared with night 1 ([1]; under progesterone 300 mg daily, night 2 with iv catheter, P=0.04): about 20%
- decrease in total sleep time, night 2 compared with night 1 ([1]; under progesterone 300 mg daily, night 2 with iv catheter, P=0.05): about 20%
- decrease in sleep efficiency, night 2 compared with night 1 ([1]; under progesterone 300 mg daily, night 2 with iv catheter, P=0.07): about 20%
- GH secretion over the scheduled wake period ([2]; 0700-2300 h, mean+/-SEM, similar under both conditions): 239 ± 91 µg
- slope of the linear regression of TSH values over the 2300-0100 period ([2]; 2300-0100 period, P=0.05): significant negative slope
- TSH levels over the 2300-0700 period ([2]; 2300-0700 period, P=0.05 vs placebo): 0.98+/−0.18 mU/l
- GH secretion over the scheduled sleep period ([2]; 2300-0700 h, mean+/-SEM, P=0.05 vs placebo): 154 ± 44 µg
- 24 hour TSH levels ([2]; 24 hour, P=0.07 vs placebo): 0.91+/−0.13 mU/l
- 24 hour free T4 levels ([2]; 24 hour, P=0.53 vs placebo): 10.3 ± 0.4 ng/L
- IGF-I levels ([2]; measured on 2-3 morning plasma samples, P=0.09 vs placebo): 103 ± 23 µg/L
- effect on sleep pattern [3]: increase of stage N2 time and decrease of stage N3 time and of REM sleep
- intermittent time spent awake and REM sleep in the first third of the night [4]: decrease of intermittent time spent awake and increase in REM sleep in the first third of the night
- total duration of REM, Stage 2 or SWS, absolute power spectra; baseline, placebo and progesterone [4]: no significant differences
